Reference: ChEMBL document CHEMBL4507295 (2021)

What was measured:
[1] = target: Serine/threonine-protein kinase BRSK2 (Homo sapiens) (UniProt Q8IWQ3); conditions: Compound concentration 1000.0 nM
[2] = target: Cyclin-dependent kinase-like 1 (Homo sapiens) (UniProt Q00532); conditions: Compound concentration 1000.0 nM
[3] = target: Ribosomal protein S6 kinase alpha-6 (Homo sapiens) (UniProt Q9UK32); conditions: Compound concentration 1000.0 nM
[4] = target: RAC-alpha serine/threonine-protein kinase (Homo sapiens) (UniProt P31749); conditions: Compound concentration 1000.0 nM
[5] = target: Calcium-dependent protein kinase 1 (Plasmodium falciparum) (UniProt P62344); conditions: Compound concentration 1000.0 nM
[6] = target: Mitogen-activated protein kinase 15 (Homo sapiens) (UniProt Q8TD08); conditions: Compound concentration 1000.0 nM
[7] = target: Proto-oncogene tyrosine-protein kinase receptor Ret (Homo sapiens) (UniProt P07949); conditions: Compound concentration 1000.0 nM
[8] = target: Eukaryotic translation initiation factor 2-alpha kinase 1 (Homo sapiens) (UniProt Q9BQI3); conditions: Compound concentration 1000.0 nM
[9] = target: Non-receptor tyrosine-protein kinase TNK1 (Homo sapiens) (UniProt Q13470); conditions: Compound concentration 1000.0 nM
[10] = target: Calcium/calmodulin-dependent protein kinase type 1D (Homo sapiens) (UniProt Q8IU85); conditions: Compound concentration 1000.0 nM
[11] = target: Ephrin type-A receptor 6 (Homo sapiens) (UniProt Q9UF33); conditions: Compound concentration 1000.0 nM
[12] = target: Mitogen-activated protein kinase kinase kinase kinase 3 (Homo sapiens) (UniProt Q8IVH8); conditions: Compound concentration 1000.0 nM
Chain of Mitogen-activated protein kinase kinase kinase kinase 3 (Homo sapiens) (Q8IVH8 whole entry): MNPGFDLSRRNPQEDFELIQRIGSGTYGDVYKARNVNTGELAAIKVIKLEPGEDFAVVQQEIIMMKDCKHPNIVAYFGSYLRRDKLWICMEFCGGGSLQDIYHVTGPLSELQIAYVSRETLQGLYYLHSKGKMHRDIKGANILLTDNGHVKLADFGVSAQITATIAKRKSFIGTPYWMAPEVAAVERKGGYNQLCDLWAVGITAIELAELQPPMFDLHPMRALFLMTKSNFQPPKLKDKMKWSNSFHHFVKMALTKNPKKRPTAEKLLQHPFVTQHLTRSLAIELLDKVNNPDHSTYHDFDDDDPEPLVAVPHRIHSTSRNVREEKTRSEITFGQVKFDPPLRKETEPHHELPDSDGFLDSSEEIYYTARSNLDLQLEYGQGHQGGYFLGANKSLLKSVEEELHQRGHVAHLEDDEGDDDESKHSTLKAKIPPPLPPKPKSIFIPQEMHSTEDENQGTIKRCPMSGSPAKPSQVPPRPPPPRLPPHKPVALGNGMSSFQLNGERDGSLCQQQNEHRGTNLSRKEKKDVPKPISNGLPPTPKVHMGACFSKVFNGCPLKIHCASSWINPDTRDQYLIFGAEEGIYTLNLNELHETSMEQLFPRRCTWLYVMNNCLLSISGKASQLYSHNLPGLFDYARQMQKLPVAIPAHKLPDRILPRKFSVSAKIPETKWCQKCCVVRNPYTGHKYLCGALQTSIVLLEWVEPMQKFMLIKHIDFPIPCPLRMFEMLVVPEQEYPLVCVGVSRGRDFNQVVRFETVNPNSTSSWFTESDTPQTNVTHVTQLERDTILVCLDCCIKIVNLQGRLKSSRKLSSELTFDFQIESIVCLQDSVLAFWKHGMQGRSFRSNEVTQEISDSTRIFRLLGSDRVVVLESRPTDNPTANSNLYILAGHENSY

[13] = target: Mitogen-activated protein kinase kinase kinase 6 (Homo sapiens) (UniProt O95382); conditions: Compound concentration 1000.0 nM
[14] = target: Calcium/calmodulin-dependent protein kinase type II subunit delta (Homo sapiens) (UniProt Q13557); conditions: Compound concentration 1000.0 nM
Chain of Calcium/calmodulin-dependent protein kinase type II subunit delta (Homo sapiens) (Q13557 whole entry): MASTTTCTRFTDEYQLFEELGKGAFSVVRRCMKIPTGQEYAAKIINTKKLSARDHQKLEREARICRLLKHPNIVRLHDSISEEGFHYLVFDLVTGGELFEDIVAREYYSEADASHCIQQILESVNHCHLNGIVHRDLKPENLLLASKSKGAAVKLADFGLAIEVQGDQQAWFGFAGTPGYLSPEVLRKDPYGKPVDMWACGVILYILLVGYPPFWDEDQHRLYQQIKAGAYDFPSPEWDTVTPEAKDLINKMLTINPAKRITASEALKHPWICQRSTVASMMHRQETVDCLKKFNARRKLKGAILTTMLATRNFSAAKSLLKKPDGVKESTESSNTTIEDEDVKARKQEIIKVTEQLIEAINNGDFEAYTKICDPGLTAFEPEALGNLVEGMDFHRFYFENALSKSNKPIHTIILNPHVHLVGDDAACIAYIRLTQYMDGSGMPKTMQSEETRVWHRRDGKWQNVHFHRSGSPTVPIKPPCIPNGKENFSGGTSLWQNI

[15] = target: Serine/threonine-protein kinase TAO2 (Homo sapiens) (UniProt Q9UL54); conditions: Compound concentration 1000.0 nM
[16] = target: Dual specificity mitogen-activated protein kinase kinase 3 (Homo sapiens) (UniProt P46734); conditions: Compound concentration 1000.0 nM
[17] = target: Homeodomain-interacting protein kinase 1 (Homo sapiens) (UniProt Q86Z02); conditions: Compound concentration 1000.0 nM
[18] = target: Homeodomain-interacting protein kinase 4 (Homo sapiens) (UniProt Q8NE63); conditions: Compound concentration 1000.0 nM
[19] = target: Ephrin type-A receptor 7 (Homo sapiens) (UniProt Q15375); conditions: Compound concentration 1000.0 nM
[20] = target: Hormonally up-regulated neu tumor-associated kinase (Homo sapiens) (UniProt P57058); conditions: Compound concentration 1000.0 nM
[21] = target: Serine/threonine-protein kinase 32C (Homo sapiens) (UniProt Q86UX6); conditions: Compound concentration 1000.0 nM
[22] = tested on: ALK tyrosine kinase receptor (Homo sapiens), Q9UM73 [L1196M]; conditions: Compound concentration 1000.0 nM
[23] = target: Ephrin type-B receptor 2 (Homo sapiens) (UniProt P29323); conditions: Compound concentration 1000.0 nM
[24] = target: cAMP-dependent protein kinase catalytic subunit alpha (Homo sapiens) (UniProt P17612); conditions: Compound concentration 1000.0 nM
[25] = target: Activated CDC42 kinase 1 (Homo sapiens) (UniProt Q07912); conditions: Compound concentration 1000.0 nM
[26] = target: Alpha-1B adrenergic receptor (Homo sapiens) (UniProt P35368); conditions: Compound concentration 10.0 uM
[27] = target: Calcium/calmodulin-dependent protein kinase type IV (Homo sapiens) (UniProt Q16566); conditions: Compound concentration 1000.0 nM
[28] = target: Epidermal growth factor receptor (Homo sapiens) (UniProt P00533); conditions: Compound concentration 1000.0 nM
[29] = target: Ribosomal protein S6 kinase alpha-2 (Homo sapiens) (UniProt Q15349); conditions: Compound concentration 1000.0 nM
Chain of Ribosomal protein S6 kinase alpha-2 (Homo sapiens) (Q15349 whole entry): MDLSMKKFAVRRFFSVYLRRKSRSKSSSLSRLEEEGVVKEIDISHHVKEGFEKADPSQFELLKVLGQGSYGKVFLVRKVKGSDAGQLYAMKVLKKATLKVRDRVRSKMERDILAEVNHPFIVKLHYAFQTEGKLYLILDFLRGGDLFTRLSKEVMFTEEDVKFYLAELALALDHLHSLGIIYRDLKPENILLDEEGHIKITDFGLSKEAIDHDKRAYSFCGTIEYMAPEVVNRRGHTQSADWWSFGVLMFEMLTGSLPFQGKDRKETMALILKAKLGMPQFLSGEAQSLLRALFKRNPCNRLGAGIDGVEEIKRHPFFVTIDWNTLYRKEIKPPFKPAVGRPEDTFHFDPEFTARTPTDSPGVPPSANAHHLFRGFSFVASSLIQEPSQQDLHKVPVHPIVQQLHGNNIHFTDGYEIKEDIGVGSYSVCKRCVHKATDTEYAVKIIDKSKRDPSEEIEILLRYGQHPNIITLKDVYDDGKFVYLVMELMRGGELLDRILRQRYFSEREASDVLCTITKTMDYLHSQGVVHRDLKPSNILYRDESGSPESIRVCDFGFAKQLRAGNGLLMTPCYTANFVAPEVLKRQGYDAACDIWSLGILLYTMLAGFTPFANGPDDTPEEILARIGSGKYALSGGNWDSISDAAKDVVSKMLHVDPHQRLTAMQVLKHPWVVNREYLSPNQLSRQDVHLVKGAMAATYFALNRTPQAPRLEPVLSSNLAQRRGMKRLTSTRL

[30] = tested on: Proto-oncogene tyrosine-protein kinase receptor Ret (Homo sapiens), P07949 [V804L]; conditions: Compound concentration 1000.0 nM
[31] = target: Serine/threonine-protein kinase TAO1 (Homo sapiens) (UniProt Q7L7X3); conditions: Compound concentration 1000.0 nM
[32] = target: 3-phosphoinositide-dependent protein kinase 1 (Homo sapiens) (UniProt O15530); conditions: Compound concentration 1000.0 nM
[33] = target: Tyrosine-protein kinase JAK2 (Homo sapiens) (UniProt O60674); conditions: Compound concentration 1000.0 nM
[34] = target: Serine/threonine-protein kinase N2 (Homo sapiens) (UniProt Q16513); conditions: Compound concentration 1000.0 nM
[35] = target: Cyclin-dependent kinase 18 (Homo sapiens) (UniProt Q07002); conditions: Compound concentration 1000.0 nM
[36] = target: Serine/threonine-protein kinase WNK1 (Homo sapiens) (UniProt Q9H4A3); conditions: Compound concentration 1000.0 nM
Chain of Serine/threonine-protein kinase WNK1 (Homo sapiens) (Q9H4A3 whole entry, looked up): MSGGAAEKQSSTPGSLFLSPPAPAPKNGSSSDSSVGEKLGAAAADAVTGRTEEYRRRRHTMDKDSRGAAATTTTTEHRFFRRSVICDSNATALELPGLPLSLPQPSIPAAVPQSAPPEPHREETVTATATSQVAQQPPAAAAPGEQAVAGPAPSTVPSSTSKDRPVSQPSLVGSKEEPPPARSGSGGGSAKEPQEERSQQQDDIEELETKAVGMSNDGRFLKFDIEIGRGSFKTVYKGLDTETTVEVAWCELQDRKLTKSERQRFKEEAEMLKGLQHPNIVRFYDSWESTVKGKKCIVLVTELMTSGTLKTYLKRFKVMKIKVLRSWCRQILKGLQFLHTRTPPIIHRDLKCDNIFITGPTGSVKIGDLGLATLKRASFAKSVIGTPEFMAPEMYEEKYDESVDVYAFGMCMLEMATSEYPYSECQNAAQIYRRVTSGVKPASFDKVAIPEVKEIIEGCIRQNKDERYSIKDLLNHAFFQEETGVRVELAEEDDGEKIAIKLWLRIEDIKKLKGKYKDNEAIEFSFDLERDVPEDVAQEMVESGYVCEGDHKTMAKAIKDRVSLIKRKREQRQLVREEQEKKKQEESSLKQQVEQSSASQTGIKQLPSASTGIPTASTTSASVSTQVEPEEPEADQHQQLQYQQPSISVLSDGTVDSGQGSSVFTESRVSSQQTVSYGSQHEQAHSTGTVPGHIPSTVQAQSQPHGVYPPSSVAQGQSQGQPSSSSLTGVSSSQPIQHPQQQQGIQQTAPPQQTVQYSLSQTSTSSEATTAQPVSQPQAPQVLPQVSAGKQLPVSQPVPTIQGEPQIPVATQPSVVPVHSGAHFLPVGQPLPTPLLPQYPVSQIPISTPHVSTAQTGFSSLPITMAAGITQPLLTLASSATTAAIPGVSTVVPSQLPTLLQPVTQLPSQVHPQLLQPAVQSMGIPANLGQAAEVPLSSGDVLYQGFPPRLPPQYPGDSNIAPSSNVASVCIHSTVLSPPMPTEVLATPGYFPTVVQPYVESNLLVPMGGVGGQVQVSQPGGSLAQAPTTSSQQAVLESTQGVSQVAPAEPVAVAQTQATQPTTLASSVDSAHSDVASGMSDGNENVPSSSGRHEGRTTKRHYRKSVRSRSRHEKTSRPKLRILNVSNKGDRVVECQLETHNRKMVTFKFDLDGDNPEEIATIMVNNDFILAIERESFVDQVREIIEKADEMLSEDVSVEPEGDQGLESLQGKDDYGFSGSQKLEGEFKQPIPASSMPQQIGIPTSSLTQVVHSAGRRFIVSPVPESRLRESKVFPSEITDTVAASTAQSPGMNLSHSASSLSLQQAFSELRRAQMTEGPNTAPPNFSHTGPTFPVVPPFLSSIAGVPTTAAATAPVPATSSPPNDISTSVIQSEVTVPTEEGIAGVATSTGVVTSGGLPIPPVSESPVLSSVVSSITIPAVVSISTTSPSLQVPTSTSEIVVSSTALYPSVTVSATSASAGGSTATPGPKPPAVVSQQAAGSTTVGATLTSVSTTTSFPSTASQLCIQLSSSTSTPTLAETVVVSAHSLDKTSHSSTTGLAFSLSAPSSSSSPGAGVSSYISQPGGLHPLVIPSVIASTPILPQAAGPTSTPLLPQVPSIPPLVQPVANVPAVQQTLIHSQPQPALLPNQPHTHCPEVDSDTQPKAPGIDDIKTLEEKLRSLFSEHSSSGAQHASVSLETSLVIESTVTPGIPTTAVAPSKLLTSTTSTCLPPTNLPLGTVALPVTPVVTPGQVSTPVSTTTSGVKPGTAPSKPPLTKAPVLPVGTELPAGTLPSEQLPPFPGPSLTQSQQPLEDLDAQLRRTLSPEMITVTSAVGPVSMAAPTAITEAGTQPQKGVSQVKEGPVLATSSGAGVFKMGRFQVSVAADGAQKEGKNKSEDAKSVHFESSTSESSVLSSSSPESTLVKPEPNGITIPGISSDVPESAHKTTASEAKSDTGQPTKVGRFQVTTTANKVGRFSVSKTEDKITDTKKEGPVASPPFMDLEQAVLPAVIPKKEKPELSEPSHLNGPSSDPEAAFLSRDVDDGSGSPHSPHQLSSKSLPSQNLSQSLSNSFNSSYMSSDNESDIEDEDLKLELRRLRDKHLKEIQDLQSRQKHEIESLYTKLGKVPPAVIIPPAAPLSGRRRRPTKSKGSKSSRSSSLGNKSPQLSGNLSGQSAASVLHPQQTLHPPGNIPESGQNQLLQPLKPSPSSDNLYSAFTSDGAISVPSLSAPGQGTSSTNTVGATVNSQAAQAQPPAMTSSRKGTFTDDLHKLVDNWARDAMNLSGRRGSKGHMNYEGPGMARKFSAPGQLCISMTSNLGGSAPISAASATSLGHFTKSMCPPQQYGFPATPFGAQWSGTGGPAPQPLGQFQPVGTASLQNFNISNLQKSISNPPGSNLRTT

[37] = tested on: Tyrosine-protein kinase ABL1 (Homo sapiens), P00519 [M351T]; conditions: Compound concentration 1000.0 nM
[38] = target: Non-receptor tyrosine-protein kinase TYK2 (Homo sapiens) (UniProt P29597); conditions: Compound concentration 1000.0 nM
[39] = target: Dual specificity mitogen-activated protein kinase kinase 6 (Homo sapiens) (UniProt P52564); conditions: Compound concentration 1000.0 nM
[40] = target: NUAK family SNF1-like kinase 1 (Homo sapiens) (UniProt O60285); conditions: Compound concentration 1000.0 nM
[41] = tested on: Tyrosine-protein kinase ABL1 (Homo sapiens), P00519 [F317I]; conditions: Compound concentration 1000.0 nM
[42] = target: Cyclin-dependent kinase 7 (Homo sapiens) (UniProt P50613); conditions: Compound concentration 1000.0 nM
[43] = target: Receptor tyrosine-protein kinase erbB-3 (Homo sapiens) (UniProt P21860); conditions: Compound concentration 1000.0 nM
[44] = target: Tyrosine-protein kinase ABL1 (Homo sapiens) (UniProt P00519); conditions: Compound concentration 1000.0 nM
[45] = target: MAP kinase-activated protein kinase 2 (Homo sapiens) (UniProt P49137); conditions: Compound concentration 1000.0 nM

Chain of Cyclin-dependent kinase-like 1 (Homo sapiens) (Q00532 whole entry): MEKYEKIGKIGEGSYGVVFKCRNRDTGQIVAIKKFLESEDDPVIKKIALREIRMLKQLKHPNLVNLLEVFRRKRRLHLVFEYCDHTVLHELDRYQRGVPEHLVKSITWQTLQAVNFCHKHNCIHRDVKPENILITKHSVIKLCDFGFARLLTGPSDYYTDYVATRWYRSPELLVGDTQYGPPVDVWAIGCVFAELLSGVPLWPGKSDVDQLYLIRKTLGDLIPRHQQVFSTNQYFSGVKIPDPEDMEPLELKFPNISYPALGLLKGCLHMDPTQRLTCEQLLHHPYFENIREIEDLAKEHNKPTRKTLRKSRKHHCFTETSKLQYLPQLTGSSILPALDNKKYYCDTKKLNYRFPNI

N#CC1(c2ccccn2)CCN(Cc2cc(C(=O)O)c(=O)n3ccccc23)CC1 [MSD-M1PAM]
inactive: residual activity [1] 100% | residual activity [2] 100% | residual activity [3] 84% | residual activity [4] 100% | residual activity [5] 88% | residual activity [6] 100% | residual activity [7] 95% | residual activity [8] 86% | residual activity [9] 93% | residual activity [10] 100% | residual activity [11] 86% | residual activity [12] 80% | residual activity [13] 100% | residual activity [14] 100% | residual activity [15] 97% | residual activity [16] 73% | residual activity [17] 100% | residual activity [18] 95% | residual activity [19] 100% | residual activity [20] 100% | residual activity [21] 72% | residual activity [22] 100% | residual activity [23] 100% | residual activity [24] 88% | residual activity [25] 99% | inhibition [26] 6.68% | residual activity [27] 84% | residual activity [28] 83% | residual activity [29] 100% | residual activity [30] 100% | residual activity [31] 100% | residual activity [32] 100% | residual activity [33] 96% | residual activity [34] 100% | residual activity [35] 100% | residual activity [36] 97% | residual activity [37] 57% | residual activity [38] 99% | residual activity [39] 99% | residual activity [40] 98% | residual activity [41] 65% | residual activity [42] 58% | residual activity [43] 100% | residual activity [44] 100% | residual activity [45] 75%

N#CC1(c2ccccn2)CCN(Cc2cc(C(=O)N3CCCC3)c(=O)n3ccccc23)CC1
inactive: residual activity [1] 77% | residual activity [2] 78% | residual activity [3] 89% | residual activity [4] 91% | residual activity [5] 84% | residual activity [6] 92% | residual activity [7] 74% | residual activity [8] 83% | residual activity [9] 72% | residual activity [10] 100% | residual activity [11] 100% | residual activity [12] 81% | residual activity [13] 100% | residual activity [14] 97% | residual activity [15] 100% | residual activity [16] 81% | residual activity [17] 77% | residual activity [18] 67% | residual activity [19] 100% | residual activity [20] 79% | residual activity [21] 100% | residual activity [22] 100% | residual activity [23] 77% | residual activity [24] 88% | residual activity [25] 85% | inhibition [26] 1.36% | residual activity [27] 96% | residual activity [28] 100% | residual activity [29] 88% | residual activity [30] 92% | residual activity [31] 100% | residual activity [32] 81% | residual activity [33] 85% | residual activity [34] 88% | residual activity [35] 100% | residual activity [36] 100% | residual activity [37] 100% | residual activity [38] 91% | residual activity [39] 98% | residual activity [40] 86% | residual activity [41] 87% | residual activity [42] 82% | residual activity [43] 93% | residual activity [44] 89% | residual activity [45] 84%
